Like-named read-outs stand apart in the source and are kept apart here. Numbered stars: 1 amine (or outer) side, 2 acyl side, 3 side chain; on linkers, the order of the positions; unused ones are H or OH. Bridge positions count the residues as written; N and C are the ends. Square brackets hold non-standard residues; d marks the D form. Peptide text beside a SMILES is read from it. * marks the point of attachment. TBMB(SCH2CH2NH-DOTA) = O=C(O)CN1CCN(CC(=O)O)CCN(CC(=O)NCCSCc2cc(C[*:1])cc(C[*:2])c2)CCN(CC(=O)O)CC1; Phe(2-CF3) = N[C@@H](Cc1ccccc1C(F)(F)F)C(=O)O; Hyp = O=C(O)[C@@H]1C[C@@H](O)CN1; Hexanoyl = CCCCCC(=O)*; Aib = CC(C)(N)C(=O)O
How the values were obtained:
[1] = Plasma concentration (pharmacokinetic) experiment of 177Lu-labelled compounds; conditions: for tissue uptake: SD, rat, whole blood, iv, total radioactivity
Procedure: (§1) Experimental animals: Germline: SD rat (Beijing Vital River Laboratory Animal Technology Co., Ltd.); Age: 5-6 weeks old; Body weight: 100-150 g.
(§2) • 1) Empty tubes for γ-counting were weighed and labelled in advance. • 2) After the test sample was injected into the tail vein of rats, animal blood samples were collected from the orbit at 2 min, 5 min, 15 min, 30 min, 1 h, 2 h, 4 h, 6 h, 24 h, 48 h and 72 h. The sample tubes containing blood were weighed. • 3) The net weight of the blood was calculated, and the radioactive count of the collected blood was determined using a γ-counter. • 4) The distribution of the labelled compound in the blood of rats at different time points was determined. The test sample was accurately diluted 100-fold, and 0.5 ml of the dilution was added to a counting tube to serve as a 1% ID standard (i.e., one percent of the injected dose). The radioactive counts of both the 1% ID standard and the biological samples were simultaneously determined using the γ-counter. • 5) The pharmacokinetic parameters were calculated using DAS software.
(§3) Data obtained from rat blood was expressed as the percentage of radioactive count per gram of blood relative to the total dose (radioactive count) (%ID/g). Specific calculation formula: [formula]
(§4) At the same time, the drug concentration in the blood was calculated on the basis of the radioactive count in the blood. Specific calculation formula: Plasma concentration (μCi/mL) = ((CPMBlood/CPMTotal administered dose) × D (μCi)Administered dose)/(w (g) Blood/i (g/mL)Blood density) [formula]

U-87 MG cells [2] = conditions: mouse, in vivo
Procedure: (§5) Experimental animals: Germline: B-NDG (Biocytogen Jiangsu Co., Ltd.); Age: 5-8 weeks old; Body weight: 20-24 g.
(§6) A sufficient quantity of U-87 MG cells was prepared and inoculated into the posterior position of the right forelimb of B-NDG mice in an inoculation volume of 100 µl, containing 50% Matrigel and 5 × 10^6 cells. After inoculation, the tumour volume and animal body weight were monitored twice a week. Model mice with a tumour volume between 200 and 500 m^3 were selected for enrolment in this experiment and randomly grouped on the basis of tumour volume.

[3] = PET/SPECT imaging test of labelled compounds in U-87 MG tumour-bearing mice; conditions: B-NDG, mouse, tumour and kidney, iv, total radioactivity
Procedure: as §5, §6

U-87 MG cells [4] = experiment: as above; conditions: for Tumour uptake: 177Lu-labelled
Procedure: as §5, §6

U-87 MG cells [5] = experiment: In vivo efficacy experiment in U-87 MG model mice; design: species or system B-NDG mice
Procedure: A total of 90 mice were inoculated. When the tumour in the mice grew to about […], 40 mice with uniform tumour sizes were selected for study enrolment.
The administration regimen was as follows: • Route of administration: tail vein injection; • Administration volume: 0.03-0.07 mL/animal; • Administration frequency and dose: The control group was given PBS, the ^177Lu-FAP-2286 group was given a single dose of 0.8 mCi/animal, the ^177Lu-DOTA-09 0.4mCi group was given a single dose of 0.4 mCi/animal, the ^177Lu-DOTA-09 0.8 mCi group was given a single dose of 0.8 mCi/animal, the ^177Lu-DOTA-09 0.8mCi×2 group was given two doses of 0.8 mCi/animal, with an administration interval of 35 days. Each group included eight animals. The administration time and administration activity of each mouse were recorded in detail.
After tumour modelling, the tumour size was observed. On the day before administration or the day of administration, the tumour volume was measured using a digital calliper, and the animal body weight was recorded. The animals were evenly divided into five groups on the basis of tumour volume, as follows: control group, ^177Lu-FAP-2286 0.8 mCi group, ^177Lu-DOTA-09 0.4 mCi group, ^177Lu-DOTA-09 0.8 mCi group, and ^177Lu-DOTA-09 0.8 mCi*2 group, with eight animals in each group.
On the day of administration, the test sample was taken for preparation (the stock solution of the test sample was directly used), and the activity of the prepared solution was measured.
From the second day after administration, the stage of tumour and body weight measurement began. The tumour and body weight measurement was performed at least twice a week. During each measurement, the long and short diameters of the tumour were recorded. The measurements were kept at the same location as possible. The abnormalities and deaths of the animals were recorded in time. […] The tumour volume was calculated as follows: tumour volume (mm^3) = long diameter × short diameter × short diameter × 0.52.

[6] = rat, in vivo
Procedure: as §1, §2, §3, §4

CCCCCC(=O)N[C@H]1CSCc2cc(CSCCNC(=O)CN3CCN(CC(=O)O)CCN(CC(=O)O)CCN(CC(=O)O)CC3)cc(c2)CSC[C@@H](C(=O)O)NC(=O)[C@H](Cc2ccccc2C(F)(F)F)NC(=O)[C@H](CCC(N)=O)NC(=O)[C@H]([C@@H](C)O)NC(=O)[C@@H]2C[C@@H](O)CN2C(=O)[C@@H]2CCCN2C(=O)C(C)(C)NC1=O [^177Lu-DOTA-09, metal not drawn] (Hexanoyl-C[Aib]P[Hyp]TQ[Phe(2-CF3)]C-OH; linker 1-8 via TBMB(SCH2CH2NH-DOTA))
Cl_obs ([1]; SD rat, tail vein, blood): 0.10±0.02 µCi/h*%ID/g
Cmax ([1]; SD rat, tail vein, blood): 0.89±0.21 %ID/g
MRTlast ([1]; SD rat, tail vein, blood): 15.49 ± 0.36 h
Vz_obs ([1]; SD rat, tail vein, blood): 2.21±0.38 µCi/%ID/g
tissue uptake ([1]; AUCINF_obs, SD rat, tail vein, blood): 5.28 ± 1.07
tissue uptake ([1]; AUClast, SD rat, tail vein, blood): 5.04 ± 0.94
mean residence time (MRTlast) compared with control ([1]; rats, versus 177Lu-FAP-2286, in words): significantly longer
course of tumour uptake / intratumoral retention (U-87 MG cells [2]): decreased slowly
tissue to tissue ratio at 0.5 h [3]: 6.08 ± 1.62
tissue to tissue ratio at 1.5 h [3]: 8.66 ± 0.73
tissue to tissue ratio at 4 h [3]: 11.8 ± 2.62
tissue to tissue ratio at 24 h [3]: 19.4 ± 5.84
Tumour uptake (U-87 MG cells [4]; Table 5, 0.5 h): 29.52±2.98
Tumour uptake (U-87 MG cells [4]; Table 5, 1.5 h): 30.88±3.14
Tumour uptake (U-87 MG cells [4]; Table 5, 4.0 h): 31.09±3.88
Tumour uptake (U-87 MG cells [4]; Table 5, 24h): 30.46±1.99
Tumour uptake (U-87 MG cells [4]; Table 5, 48h): 24.10±2.21
Tumour uptake (U-87 MG cells [4]; Table 5, 72h): 20.59±1.91
Tumour uptake (U-87 MG cells [4]; Table 5, 168h): 12.81±0.90
tumour/kidney ratio compared with control (U-87 MG cells [4]; versus 177Lu-FAP-2286, in words): higher
body weight changes of mice (U-87 MG cells [5]; during administration, all dose groups): No significant body weight changes
half-life (t1/2) compared with control [6]: significantly longer
t1/2 [6]: 9.12 ± 4.69 h

CCCCCC(=O)N[C@H]1CSCc2cc(CSCCNC(=O)CN3CCN(CC(=O)O)CCN(CC(=O)O)CCN(CC(=O)O)CC3)cc(c2)CSC[C@@H](C(=O)O)NC(=O)[C@H](Cc2ccccc2)NC(=O)[C@H](CCC(N)=O)NC(=O)[C@H]([C@@H](C)O)NC(=O)[C@@H]2CCCN2C(=O)[C@@H]2CCCN2C1=O [^177Lu-FAP-2286, metal not drawn]
course of tumour uptake / intratumoral retention (U-87 MG cells [2]): rapid decrease in intratumoral retention after 4 hours
tissue to tissue ratio at 0.5 h [3]: 3.29 ± 0.78
tissue to tissue ratio at 1.5 h [3]: 6.53 ± 1.12
tissue to tissue ratio at 4 h [3]: 9.82 ± 4.79
tissue to tissue ratio at 24 h [3]: 2.75 ± 0.9
tumour inhibition rate (U-87 MG cells [5]; day 20 after administration, single dose of 0.8 mCi/animal): 40.02%
tumour size (U-87 MG cells [5]; day 20 after administration, single dose of 0.8 mCi/animal, tail vein): 1833.89 ± 338.00 mm^3
median survival time (U-87 MG cells [5]; single dose of 0.8 mCi/animal): 39 days
Cl_obs [6]: 0.53±0.08 µCi/h*%ID/g
Cmax [6]: 0.73±0.27 %ID/g
MRTlast [6]: 2.52 ± 0.34 h
Vz_obs [6]: 1.50±0.97 µCi/%ID/g
t1/2 [6]: 1.29 ± 0.43 h

Source: patent publication EP4745151A1, “FIBROBLAST ACTIVATION PROTEIN LIGAND AND USE THEREOF” (Jiangsu Hengrui Pharmaceuticals Co., Ltd., priority 2023, dated 2025)
